For experiment [1], the target named is T1, HSP47 (Homo sapiens, UniProt P50454).
T1 construct: purchased GenScript US
Put plainly: Evaluation of HSP47 activity (inhibition of collagen fibril formation, OD 340 nm). The format is biochemical. The note with it: collagen fibril formation in PBS pH 7.4, 37° C.; HSP47 9.45 μg/ml; Prism. On the procedure: Fibrils were formed by adding 180 ul of phosphate-buffered saline (PBS, pH 7.4) solution to 20 ul of collagen dissolved in acidic solution (collagen solution, UK), which was measured at a wavelength of 340 nm. HSP47 (GenScript US) was added at a concentration of 9.45 μg/ml to evaluate HSP47 activity as the degree to which it inhibits fibril formation. Test compound was added with concentrations of 100 μM to 1 μM and the inhibitory activity of HSP47 was calculated as a percentage.
The OD measured when collagen was placed in PBS buffer (pH 7.4) to form fibrils at 37° C. was taken as 100%, and the OD measured when HSP47 and collagen were placed together to form fibrils was taken as 0%. The percentage of inhibition of HSP47 by the test compound at each concentration was measured. IC50 values were calculated using Prism software (Graphpad, USA).

Experiment [2] concerns Hepatic stellate cell LX-2. Briefly: Sirius red assay, TGF-β1-induced fibrosis in hepatic stellate cell LX-2. The experiment is classed as cell-based. The note with it: LX-2, 10 ng/ml TGF-β1 co-treatment; compared to the TGF-β1 treatment group; BBR 30 μM, 10 μM (FIG. 3). How it is done: (§1) Hepatic stellate LX-2 (Elabscience CH), lung epithelial A549 (ATCC US), liver stellate T6 (Elabscience, CH), or skin KEL FIB (ATCC, US) cells were cultured in 24-well tissue culture plates for 18 hours, followed by TGF-beta 10 ng/ml treatment, and then incubated with test compounds for 24 hours. Cells were washed with PBS, fixed with Bouin's solution, and washed twice with distilled water. The fixed cells were stained with Sirius red for 2 hours to observe cellular morphological changes, and then washed with 0.01 N HCl solution. Collagen-bound Sirius red was extracted with 0.1 N NaOH solution, which was then quantified at a wavelength of 570 nm. The inhibitory efficacy of each compound on collagen production was shown as a percentage.
Hepatic stellate cell LX-2 was treated with 10 ng/ml TGF-β1 (Gibco, US) to induce fibrosis, and the benzbromarone (BBR) treatment group was treated with TGF-β1 and benzbromarone (BBR) simultaneously. The extent of fibrosis inhibition was observed by fixing the cells and staining them with Sirius Red, a collagen-specific stain, to observe morphological changes (FIG. 2A, 2B), and quantified by extracting Sirius Red with 0.1 N NaOH solution (FIG. 3).

For experiment [3], the system named is Hepatic stellate cell T6. Briefly: Sirius red assay, TGF-β1-induced fibrosis in hepatic stellate cell T6. The experiment is classed as cell-based. The settings on record: T6, 10 ng/ml TGF-β1 co-treatment, 30 μM; compared to the TGF-β1 treatment group. On the procedure: as §1
Hepatic stellate cell T6 was treated with 10 ng/ml TGF-β1 to induce fibrosis, and the test compound was treated simultaneously. The extent of fibrosis inhibition was observed by fixing the cells and staining them with Sirius Red, a collagen-specific stain, to observe morphological changes (FIG. 4A, 4B), and quantified by extracting Sirius Red with 0.1 N NaOH solution (FIG. 5).

Experiment [4] relates to Lung epithelial cells A549. Briefly: Sirius red assay, TGF-β1-induced fibrosis in lung epithelial cells A549. The format is cell-based. On the procedure:
as §1
Lung epithelial cells A549 were treated with 10 ng/ml TGF-β1 to induce fibrosis, and the test compound was treated simultaneously. The extent of fibrosis inhibition was observed by fixing the cells and staining with Sirius Red, a collagen-specific stain, to observe morphological changes (FIG. 6A, 6B), and quantified by extracting Sirius Red with 0.1 N NaOH solution (FIG. 7).

In experiment [5] the test system is KEL FIB cells isolated from keloid patients. Briefly: Sirius red assay, TGF-β1-induced fibrosis in dermal fibroblast KEL FIB cells. The experiment is classed as cell-based. How it is done:
as §1
KEL FIB cells (ATCC, USA) isolated from keloid patients were treated with 10 ng/ml TGF-β1 to induce fibrosis, and the test compound was treated simultaneously. The extent of fibrosis inhibition was observed by fixing the cells and staining them with Sirius Red, a collagen-specific stain, to observe morphological changes (FIG. 8A, 8B), and quantified by extracting Sirius Red with 0.1 N NaOH solution (FIG. 9).

Experiment [6] has as its system carbon tetrachloride-induced liver fibrosis. Briefly: Carbon tetrachloride-induced liver fibrosis model in mice. The experiment is classed as in vivo. The settings on record: CCl4 4 weeks, oral, twice a day (30 mg/kg BID). On the procedure: CCl4 was administered intraperitoneally at 50 uL (1:1 corn oil) per mouse three times a week for 4 weeks, and the test compound was suspended in 0.5% methylcellulose and administered orally at a dose of 5 ml/kg daily. As a positive control, obeticholic acid (Medkoo, US) was administered at a dose of 30 mg/kg. Body weight was measured once a week during the study period. 28 days after CCl4 administration, […] were inhalationally anesthetized with ether, and once anesthesia was confirmed, they were laparotomized and blood was drawn using a syringe from the posterior vena cava, and then the abdominal aorta and posterior vena cava were cut to exsanguinate/death. Blood was separated into serum and blood biochemical tests were performed. The liver was removed and weighed, the right lobe was fixed in 10% neutral buffered formalin solution, and the left lobe was divided in half and quick-frozen in liquid nitrogen. The quick-frozen samples were stored in an ultra-low temperature freezer set below −70° C. and used for 4-Hydroxyproline assay. The fixed tissues were subjected to the usual tissue processing procedures such as cutting, dehydration, paraffin embedding, and sectioning to prepare specimens for histopathological examination. Hematoxylin & Eosin (H&E) and Picrosirius red staining were performed, and histopathological changes were observed using optical microscope (Olympus BX53, Japan), and the area of fibrosis was analyzed. To determine the extent of carbon tetrachloride-induced liver tissue damage and liver function, plasma alanine aminotransferase (ALT) and bilirubin levels were analyzed in the plasma collected from autopsy using a blood biochemistry analyzer (7180 Hitachi, Japan). […] As liver fibrosis progresses, collagen is deposited in liver tissue. The content of 4-hydroxyproline in collagen in a carbon tetrachloride-induced injured liver tissue was analyzed to determine the extent of fibrosis.

Experiment [7] relates to burn-induced skin scarring. Briefly: Inhibition of burn-induced skin scarring in minipigs. The format is in vivo, Yucatan minipigs. The settings on record: 1% ointment once daily topical, day 45 of burn induction. On the procedure: Yucatan minipigs that had been fasted for at least 8 hours were anesthetized using xylazine hydrochloride, midazolam, and propofol. After removing the hair on the trunk and back, the test area was disinfected with povidone iodine solution. Burns were induced by contacting the test area with a 400-gram stainless steel weight for 40 seconds. Burns were applied 2 cm from the spine and 4 cm apart between burn sites. The burn area should not exceed 3.5% of the total animal area. 15 days after burning, the scab was removed and the test compound was applied to the wounds once daily. At 45 days after burn induction, autopsy was performed, and the wounds were fixed in formalin solution and H&E staining was performed to measure the thickness of the dermal layer. The test compound was suspended in propylene glycol (Yakuri pure chemicals, Japan) and made into a homogeneous suspension using an ultrasonic cleaner, which was then diluted in lanolin (Merck, USA) and petroleum jelly (Merck, USA) under 60° C. water bath to prepare an ointment. Each component of the prepared ointment is 1% (w/w) of the test compound, 20% (w/w) of propylene glycol, 15% (w/w) of lanolin, and 64% (w/w) of vaseline. […] The reduction of scar size and wound in the BBR treatment group (BBR 1%) was clearly shown numerically. […] Also, the numerical measurement of the hypertrophy of the dermis layer was shown in FIG. 15B, and the hypertrophy of the dermis layer was the lowest in the BBR treatment group (BBR 1%).

[8] abbreviates: 10 ng/ml TGF-β1, Sirius Red quantified.

pIC50: −log10 of the molar value.

T1 sequence (P50454 19-418, species assumed): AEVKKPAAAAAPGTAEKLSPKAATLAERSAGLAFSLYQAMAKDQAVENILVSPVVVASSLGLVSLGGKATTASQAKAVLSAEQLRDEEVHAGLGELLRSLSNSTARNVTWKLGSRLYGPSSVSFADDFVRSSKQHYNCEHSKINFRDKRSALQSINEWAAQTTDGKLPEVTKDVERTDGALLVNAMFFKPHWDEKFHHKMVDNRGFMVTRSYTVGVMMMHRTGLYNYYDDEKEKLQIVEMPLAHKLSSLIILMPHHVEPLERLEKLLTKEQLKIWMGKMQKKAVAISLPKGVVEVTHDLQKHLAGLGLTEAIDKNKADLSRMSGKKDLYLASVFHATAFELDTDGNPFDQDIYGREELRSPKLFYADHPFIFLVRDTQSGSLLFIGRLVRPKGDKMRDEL

Turning to `CCc1oc2ccccc2c1C(=O)c1cc(Br)c(O)c(Br)c1` [benzbromarone, (3,5-dibromo-4-hydroxyphenyl)-(2-ethyl-1-benzofuran-3-yl)methanone], in experiment [1], the pIC50 (in general, the negative decadic logarithm of the IC50, by convention in mol/L) was 3.88. In experiment [2], the “degree of fibrosis (Sirius Red, quantified)” value is “significantly reduced”. The “degree of fibrosis (Sirius Red, quantified)” value in experiment [3] is listed as “significantly reduced”. In experiment [4] (A549, 10 ng/ml TGF-β1 co-treatment, 30 μM), the “fibrosis by Sirius Red staining (morphology)” value was “fibrosis was reduced”. Also, in experiment [4] (Homo sapiens, A549, 10 ng/ml TGF-β1, Sirius Red OD 570 nm, read-out: IC50 of fibrosis inhibition), the pIC50 is 5.37. Besides, in experiment [5] (setting [8]), the “concentration at which the fibrosis inhibitory effect began to appear” value was determined as 3 µM and the “concentration from which fibrosis was significantly inhibited” value was at least 10 µM. In addition, the “fibrosis by Sirius Red staining (morphology)” value in experiment [5] (10 ng/ml TGF-β1 co-treatment, 30 μM) was “fibrosis was reduced”. In experiment [6], the “content of 4-hydroxyproline in liver tissue” value is recorded as “statistically significantly reduced”, the “plasma alanine aminotransferase (ALT)” value is on record as “Statistically significant decreases” and the plasma bilirubin result is given as “Statistically significant decreases”. In addition, the “fibrosis area of liver tissue” value in experiment [6] (versus obeticholic acid 30 mg/kg) is on record as “comparable result with fibrosis inhibition as the obeticholic acid (OCA) treatment group”. In experiment [7], the “scar extent compared to positive control triamcinolone 0.1%” value is recorded as “reduced”; the “scar size and wound extent compared to control group (Vehicle)” value is “significantly reduced”. Also, in experiment [7] (versus other groups), the “hypertrophy of the dermis layer (scar tissue thickness, H&E)” value is reported as “lowest”.

The values above are taken from US11951089B2, “Pharmaceutical composition for preventing or treating wound or scar, comprising benzbromarone” (INNOVO THERAPEUTICS INC., priority 2020, dated 2024).
